The target of one data set is T1, human ERβ (Homo sapiens, UniProt Q92731).
T1 construct: made in house; host or cells: E. coli (crude lysate)
In words: Competition with [3H]-17β-estradiol for binding to ERβ. To be noted: ligand binding domain of human ERβ in E. coli crude lysate, 2 nM [3H]-17β-estradiol, 5-15 hours at room temperature. Here is the method: Representative examples of the invention were evaluated for their ability to compete with 17β-estradiol for both ERα and ERβ. This test procedure provides the methodology for one to determine whether a particular compound binds to the estrogen receptor (and is therefore “estrogenic”) and whether there is selectivity for ERα or ERβ. […] 17β-estradiol is included as a standard reference for comparison. The procedure used is briefly described below. A crude lysate of E. coli expressing the estrogen receptor ligand binding domains (D, E, & F) of human ERα or ERβ was prepared. Both receptors and compounds were diluted in 1× Dulbecco's PBS (DPBS) supplemented with 1 mM EDTA. Using a high binding masked microtiter plate, 100 uL of receptor (1 uG/well) was combined with 2 nm [^3H]-17β-estradiol and various concentrations of compound. After between 5 and 15 hours at room temperature, the plates were washed with DPBS/1 mM EDTA and bound radioactivity determined by liquid scintillation counting. The IC50 is defined as the concentration of compound that decreases total 17β-estradiol binding by 50%.

The target in another data set is T2, human ERα (Homo sapiens, UniProt P03372).
T2 construct: made in house; host or cells: E. coli (crude lysate)
T2 sequence (P03372 311-547 limits assumed): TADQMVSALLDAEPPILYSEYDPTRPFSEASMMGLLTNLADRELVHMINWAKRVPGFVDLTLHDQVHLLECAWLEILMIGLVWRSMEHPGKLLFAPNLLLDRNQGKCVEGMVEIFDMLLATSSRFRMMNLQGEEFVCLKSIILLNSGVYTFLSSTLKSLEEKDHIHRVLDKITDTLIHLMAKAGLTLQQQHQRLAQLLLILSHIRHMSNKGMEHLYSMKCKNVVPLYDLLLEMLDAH
Description: Competition with [3H]-17β-estradiol for binding to ERα. To be noted: ligand binding domain of human ERα in E. coli crude lysate, 2 nM [3H]-17β-estradiol, 5-15 hours at room temperature; read-out: ERα (nM) IC50. Here is the method:
Representative examples of the invention were evaluated for their ability to compete with 17β-estradiol for both ERα and ERβ. This test procedure provides the methodology for one to determine whether a particular compound binds to the estrogen receptor (and is therefore “estrogenic”) and whether there is selectivity for ERα or ERβ. The values are shown in the Table infra and are reported as IC50s. 17β-estradiol is included as a standard reference for comparison. The procedure used is briefly described below. A crude lysate of E. coli expressing the estrogen receptor ligand binding domains (D, E, & F) of human ERα or ERβ was prepared. Both receptors and compounds were diluted in 1× Dulbecco's PBS (DPBS) supplemented with 1 mM EDTA. Using a high binding masked microtiter plate, 100 uL of receptor (1 uG/well) was combined with 2 nm [^3H]-17β-estradiol and various concentrations of compound. After between 5 and 15 hours at room temperature, the plates were washed with DPBS/1 mM EDTA and bound radioactivity determined by liquid scintillation counting. The IC50 is defined as the concentration of compound that decreases total 17β-estradiol binding by 50%.

24 compounds from US7671084B2 (Wyeth, priority 2004, dated 2010) can be followed below.

T1 sequence (Q92731 264-498 limits assumed): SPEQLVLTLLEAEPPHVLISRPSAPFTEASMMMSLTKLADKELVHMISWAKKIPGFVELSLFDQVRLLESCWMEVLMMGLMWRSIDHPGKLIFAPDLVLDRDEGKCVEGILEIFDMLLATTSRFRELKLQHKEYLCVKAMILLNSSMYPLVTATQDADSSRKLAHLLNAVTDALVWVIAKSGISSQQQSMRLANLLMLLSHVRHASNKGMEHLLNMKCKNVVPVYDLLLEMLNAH

In general, IC50 refers to the concentration at which inhibition is half-maximal. Usually melting point stands for the temperature, or range, at which the solid turns liquid. The compound `COc1cccc(-c2c3c(cc4ccc(O)cc24)-c2ccc(O)cc2CO3)c1` [Example 34, 7-(3-Methoxyphenyl)-5H-dibenzo[c,g]chromene-3,9-diol] came in with a melting point of 220 to 223 °C. In addition, the concentration for half-maximal inhibition (IC50) on human ERβ is 17 nM. Besides, at human ERα, the IC50 is 434 nM.

Compound `Oc1ccc2c(c1)COc1c-2cc2ccc(O)cc2c1-c1ccccc1Cl` [Example 35, 7-(2-Chlorophenyl)-5H-dibenzo[c,g]chromene-3,9-diol] registered a melting point of 220 to 222 °C. In addition, the IC50 at human ERβ is 9.7 nM. The IC50 at human ERα was 26 nM.

On to `Oc1ccc2c(c1)COc1c-2cc2ccc(O)cc2c1-c1ccc(F)c(F)c1` [Example 36, 7-(3,4-Difluorophenyl)-5H-dibenzo[c,g]chromene-3,9-diol], for which the melting point was 235 to 237 °C. Besides, the IC50 at human ERβ was found to be 6.2 nM. In addition, on human ERα, the IC50 was determined as 206 nM.

As for `Oc1ccc2c(c1)COc1c-2cc2ccc(O)cc2c1-c1ccccc1F` [Example 38, 7-(2-Fluorophenyl)-5H-dibenzo[c,g]chromene-3,9-diol], the melting point fell in the range of 240 to 242 °C. In addition, the IC50 on human ERβ is 1.4 nM. For the same compound, the IC50 on human ERα was 73 nM.

On to `Cc1ccc(-c2c3c(cc4ccc(O)cc24)-c2ccc(O)cc2CO3)cc1C` [Example 39, 7-(3,4-Dimethylphenyl)-5H-dibenzo[c,g]chromene-3,9-diol], for which the melting point lay within 218 to 221 °C. Further, the IC50 on human ERβ amounted to 22 nM. The concentration for half-maximal inhibition (IC50) at human ERα came to 608 nM.

For the compound `N#Cc1ccc(-c2c3c(cc4ccc(O)cc24)-c2ccc(O)cc2CO3)cc1` [Example 40, 7-(4-Cyanophenyl)-5H-dibenzo[c,g]chromene-3,9-diol], the melting point is greater than 250 °C. The compound also registered an IC50 on human ERβ of 9.2 nM. The half-inhibitory concentration (IC50) on human ERα was 162 nM.

`Cc1ccc(-c2c3c(cc4ccc(O)cc24)-c2ccc(O)cc2CO3)cc1F` [Example 41, 7-(3-Fluoro-4-Methylphenyl)-5H-dibenzo[c,g]chromene-3,9-diol] yielded a melting point of 238 to 240 °C. The concentration for half-maximal inhibition (IC50) on human ERβ was determined as 28 nM. The half-inhibitory concentration (IC50) on human ERα worked out at 655 nM.

As for `COc1ccc(-c2c3c(cc4ccc(O)cc24)-c2ccc(O)cc2CO3)cc1OC` [Example 42, 7-(3,4-Dimethoxyphenyl)-5H-dibenzo[c,g]chromene-3,9-diol], the melting point is 245 to 248 °C. On human ERβ, this compound yielded a concentration for half-maximal inhibition (IC50) of 22 nM. In addition, on human ERα, the IC50 came to 1820 nM.

Consider `Oc1ccc2c(c1)COc1c-2cc2ccc(O)cc2c1-c1cccc(C(F)(F)F)c1` [Example 43, 7-(3-Trifluoromethylphenyl)-5H-dibenzo[c,g]chromene-3,9-diol], for which the melting point lay in the range of 228 to 231 °C. Also, the concentration for half-maximal inhibition (IC50) at human ERβ is 10 nM. Also, the IC50 on human ERα was 263 nM.

`Oc1ccc2c(c1)COc1c-2cc2ccc(O)cc2c1-c1cc(F)cc(F)c1` [Example 44, 7-(3,5-Difluorophenyl)-5H-dibenzo[c,g]chromene-3,9-diol] gave a melting point of 238 to 240 °C. Moreover, the IC50 on human ERβ stood at 10 nM. Moreover, the IC50 at human ERα came out at 70 nM.

The compound `Oc1ccc2c(c1)COc1c-2cc2ccc(O)cc2c1-c1cc(Cl)cc(Cl)c1` [Example 45, 7-(3,5-Dichlorophenyl)-5H-dibenzo[c,g]chromene-3,9-diol] came in with a melting point of 252 to 255 °C. The same compound had a half-inhibitory concentration (IC50) on human ERβ of 34 nM. Besides, on human ERα, the IC50 stood at 151 nM.

The compound `Cc1cc(-c2c3c(cc4ccc(O)cc24)-c2ccc(O)cc2CO3)ccc1F` [Example 46, 7-(3-Methyl-4-Fluorophenyl)-5H-dibenzo[c,g]chromene-3,9-diol] returned a melting point of 185 to 188 °C. Moreover, the IC50 at human ERβ amounted to 39 nM. The half-maximal inhibitory concentration (IC50) on human ERα was 709 nM.

For `Oc1ccc2c(c1)COc1c-2cc2ccc(O)cc2c1-c1ccoc1` [Example 47, 7-(3-Furyl)-5H-dibenzo[c,g]chromene-3,9-diol], the melting point was in the range of 216 to 218 °C. Further, the concentration for half-maximal inhibition (IC50) on human ERβ came out at 2 nM. Also, on human ERα, the IC50 worked out at 76 nM.

The compound `Oc1ccc2c(c1)COc1c-2cc2ccc(O)cc2c1-c1ccco1` [Example 48, 7-(2-Furyl)-5H-dibenzo[c,g]chromene-3,9-diol] showed a melting point of 158 to 163 °C. The compound further had an IC50 at human ERβ of 3.5 nM. Also, on human ERα, the IC50 is 146 nM.

`CCCCc1c2c(cc3ccc(O)cc13)-c1ccc(O)cc1CO2` [Example 49, 7-Butyl-5H-dibenzo[c,g]chromene-3,9-diol] registered a melting point of 187 to 189 °C. This compound also gave an IC50 at human ERβ of 0.8 nM. Further, the 50% inhibitory concentration (IC50) on human ERα is 4 nM.

The compound `Oc1ccc2c(c1)COc1c-2cc2ccc(O)cc2c1-c1cccnc1` [Example 50, 7-(3-Pyridinyl)-5H-dibenzo[c,g]chromene-3,9-diol] registered a melting point greater than 250 °C. At human ERβ, the IC50 was 14 nM. In addition, the 50% inhibitory concentration (IC50) at human ERα amounted to 1360 nM.

`COc1cncc(-c2c3c(cc4ccc(O)cc24)-c2ccc(O)cc2CO3)c1` [Example 53, 7-(5-Methoxy-3-Pyridyl)-5H-dibenzo[c,g]chromene-3,9-diol] displayed a melting point greater than 250 °C. Also, on human ERβ, the 50% inhibitory concentration (IC50) amounted to 34 nM. Besides, the IC50 at human ERα came out at 2420 nM.

For `Oc1ccc2c(c1)COc1c-2cc2ccc(O)cc2c1-c1ccccn1` [Example 54, 7-(2-Pyridyl)-5H-dibenzo[c,g]chromene-3,9-diol], the melting point was greater than 220 °C. At human ERβ, this compound returned an IC50 of 108 nM. Besides, on human ERα, the IC50 is greater than 5000 nM.

Regarding `CSc1ccc(-c2c3c(cc4ccc(O)cc24)-c2ccc(O)cc2CO3)cc1` [Example 56, 7-(4-Methylthiophenyl)-5H-dibenzo[c,g]chromene-3,9-diol], the melting point is 195 to 198 °C. At human ERβ, the 50% inhibitory concentration (IC50) worked out at 142 nM. Besides, the IC50 on human ERα turned out to be 804 nM.

`N#CCc1ccc(-c2c3c(cc4ccc(O)cc24)-c2ccc(O)cc2CO3)cc1` [Example 57, 7-(4-Cyanomethylphenyl)-5H-dibenzo[c,g]chromene-3,9-diol] had a melting point of 240 to 242 °C. Also, the IC50 at human ERβ stood at 71 nM. In addition, the IC50 at human ERα was 358 nM.

`Oc1ccc2c(c1)COc1c-2cc2ccc(O)cc2c1-c1cccc(OC(F)(F)F)c1` [Example 58, 7-(3-Trifluoromethoxyphenyl)-5H-dibenzo[c,g]chromene-3,9-diol] showed a melting point of 110 to 112 °C. The concentration for half-maximal inhibition (IC50) on human ERβ was 40 nM. Further, the concentration for half-maximal inhibition (IC50) at human ERα was determined as 661 nM.

As for `Oc1ccc2c(c1)COc1c-2cc2ccc(O)cc2c1-c1ccc(OC(F)(F)F)cc1` [Example 59, 7-(4-Trifluoromethoxyphenyl)-5H-dibenzo[c,g]chromene-3,9-diol], the melting point is 245 to 248 °C. At human ERβ, this compound came in with a concentration for half-maximal inhibition (IC50) of 34 nM. Further, the IC50 at human ERα worked out at 1220 nM.

On to `CC(C)(C)c1ccc(-c2c3c(cc4ccc(O)cc24)-c2ccc(O)cc2CO3)cc1` [Example 60, 7-(4-tert-Butylphenyl)-5H-dibenzo[c,g]chromene-3,9-diol], for which the melting point was in the range of 162 to 165 °C. At human ERβ, this compound yielded an IC50 of 320 nM. Also, the concentration for half-maximal inhibition (IC50) at human ERα was 3480 nM.

`CCc1ccc(-c2c3c(cc4ccc(O)cc24)-c2ccc(O)cc2CO3)cc1` [Example 62, 7-(4-Ethylphenyl)-5H-dibenzo[c,g]chromene-3,9-diol] registered a melting point of 203 to 205 °C. Also, the IC50 on human ERβ came out at 26 nM. Besides, the IC50 on human ERα came out at 892 nM.
